Reference: PubChem BioAssay (NCI)
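Five concentrations, 48 hours, 96-well plates. TGI: concentration producing complete growth inhibition.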

Experiments:
Experiment in all cases: NCI tumour cell line growth inhibition, 48 h
786-0 renal = system: 786-0 renal
A498 renal = system: A498 renal
A549 NSCLC = system: A549 NSCLC
ACHN renal = system: ACHN renal
CAKI-1 renal = system: CAKI-1 renal
CCRF-CEM leukemia = system: CCRF-CEM leukemia
COLO 205 colon = system: COLO 205 colon
DLD-1 colon = system: DLD-1 colon
DMS 114 small cell lung = system: DMS 114 small cell lung
DMS 273 small cell lung = system: DMS 273 small cell lung
EKVX NSCLC = system: EKVX NSCLC
HCC-2998 colon = system: HCC-2998 colon
HCT-116 colon = system: HCT-116 colon
HCT-15 colon = system: HCT-15 colon
HL-60(TB) leukemia = system: HL-60(TB) leukemia
HOP-18 NSCLC = system: HOP-18 NSCLC
HOP-62 NSCLC = system: HOP-62 NSCLC
HOP-92 NSCLC = system: HOP-92 NSCLC
HT29 colon = system: HT29 colon
IGROV1 ovarian = system: IGROV1 ovarian
K-562 leukemia = system: K-562 leukemia
KM12 colon = system: KM12 colon
KM20L2 colon = system: KM20L2 colon
LOX IMVI melanoma = system: LOX IMVI melanoma
M14 melanoma = system: M14 melanoma
M19-MEL melanoma = system: M19-MEL melanoma
MALME-3M melanoma = system: MALME-3M melanoma
MOLT-4 leukemia = system: MOLT-4 leukemia
NCI-H226 lung = system: NCI-H226 lung
NCI-H23 lung = system: NCI-H23 lung
NCI-H460 lung = system: NCI-H460 lung
NCI-H522 lung = system: NCI-H522 lung
OVCAR-3 ovarian = system: OVCAR-3 ovarian
OVCAR-4 ovarian = system: OVCAR-4 ovarian
OVCAR-5 ovarian = system: OVCAR-5 ovarian
OVCAR-8 ovarian = system: OVCAR-8 ovarian
RPMI-8226 leukemia = system: RPMI-8226 leukemia
RXF 393 renal = system: RXF 393 renal
SF-268 CNS = system: SF-268 CNS
SF-295 CNS = system: SF-295 CNS
SF-539 CNS = system: SF-539 CNS
SK-MEL-2 melanoma = system: SK-MEL-2 melanoma
SK-MEL-28 melanoma = system: SK-MEL-28 melanoma
SK-MEL-5 melanoma = system: SK-MEL-5 melanoma
SK-OV-3 ovarian = system: SK-OV-3 ovarian
SN12C renal = system: SN12C renal
SNB-19 CNS = system: SNB-19 CNS
SNB-75 CNS = system: SNB-75 CNS
SNB-78 CNS = system: SNB-78 CNS
SR leukemia = system: SR leukemia
SW-620 colon = system: SW-620 colon
TK-10 renal = system: TK-10 renal
U251 CNS = system: U251 CNS
UACC-257 melanoma = system: UACC-257 melanoma
UACC-62 melanoma = system: UACC-62 melanoma
UO-31 renal = system: UO-31 renal
XF 498 CNS = system: XF 498 CNS
RXF-631 renal = system: RXF-631 renal
LXFL 529 NSCLC = system: LXFL 529 NSCLC

c1ccc(-c2[nH]c(-c3ccccc3)c(-c3cnccn3)c2-c2cnccn2)cc1
TGI (786-0 renal): > 100 µM | TGI (A498 renal): > 100 µM | TGI (A549 NSCLC): > 100 µM | TGI (ACHN renal): > 100 µM | TGI (CAKI-1 renal): > 100 µM | TGI (CCRF-CEM leukemia): > 100 µM | TGI (COLO 205 colon): > 100 µM | TGI (DLD-1 colon): > 100 µM | TGI (DMS 114 small cell lung): > 100 µM | TGI (DMS 273 small cell lung): > 100 µM | TGI (EKVX NSCLC): > 100 µM | TGI (HCC-2998 colon): > 100 µM | TGI (HCT-116 colon): > 100 µM | TGI (HCT-15 colon): > 100 µM | TGI (HL-60(TB) leukemia): > 100 µM | TGI (HOP-18 NSCLC): > 100 µM | TGI (HOP-62 NSCLC): > 100 µM | TGI (HOP-92 NSCLC): > 100 µM | TGI (HT29 colon): > 100 µM | TGI (IGROV1 ovarian): > 100 µM | TGI (K-562 leukemia): > 100 µM | TGI (KM12 colon): > 100 µM | TGI (KM20L2 colon): > 100 µM | TGI (LOX IMVI melanoma): > 100 µM | TGI (M14 melanoma): > 100 µM | TGI (M19-MEL melanoma): > 100 µM | TGI (MALME-3M melanoma): > 100 µM | TGI (MOLT-4 leukemia): > 100 µM | TGI (NCI-H226 lung): > 100 µM | TGI (NCI-H23 lung): > 100 µM | TGI (NCI-H460 lung): > 100 µM | TGI (NCI-H522 lung): > 100 µM | TGI (OVCAR-3 ovarian): > 100 µM | TGI (OVCAR-4 ovarian): > 100 µM | TGI (OVCAR-5 ovarian): > 100 µM | TGI (OVCAR-8 ovarian): > 100 µM | TGI (RPMI-8226 leukemia): > 100 µM | TGI (RXF 393 renal): > 100 µM | TGI (SF-268 CNS): > 100 µM | TGI (SF-295 CNS): > 100 µM | TGI (SF-539 CNS): > 100 µM | TGI (SK-MEL-2 melanoma): > 100 µM | TGI (SK-MEL-28 melanoma): > 100 µM | TGI (SK-MEL-5 melanoma): > 100 µM | TGI (SK-OV-3 ovarian): > 100 µM | TGI (SN12C renal): > 100 µM | TGI (SNB-19 CNS): > 100 µM | TGI (SNB-75 CNS): > 100 µM | TGI (SNB-78 CNS): > 100 µM | TGI (SR leukemia): > 100 µM | TGI (SW-620 colon): > 100 µM | TGI (TK-10 renal): > 100 µM | TGI (U251 CNS): > 100 µM | TGI (UACC-257 melanoma): > 100 µM | TGI (UACC-62 melanoma): > 100 µM | TGI (UO-31 renal): > 100 µM | TGI (XF 498 CNS): > 100 µM

C[C@@H](c1ccccc1)N(CC#N)C1CCC[C@H]1O (stereo partly drawn)
TGI (786-0 renal): > 100 µM | TGI (A498 renal): > 100 µM | TGI (A549 NSCLC): > 100 µM | TGI (ACHN renal): > 100 µM | TGI (CCRF-CEM leukemia): > 100 µM | TGI (COLO 205 colon): > 100 µM | TGI (DMS 273 small cell lung): > 100 µM | TGI (EKVX NSCLC): > 100 µM | TGI (HCC-2998 colon): > 100 µM | TGI (HCT-116 colon): > 100 µM | TGI (HCT-15 colon): > 100 µM | TGI (HL-60(TB) leukemia): > 100 µM | TGI (HOP-18 NSCLC): > 100 µM | TGI (HOP-62 NSCLC): > 100 µM | TGI (HOP-92 NSCLC): > 100 µM | TGI (HT29 colon): > 100 µM | TGI (IGROV1 ovarian): > 100 µM | TGI (K-562 leukemia): > 100 µM | TGI (KM12 colon): > 100 µM | TGI (KM20L2 colon): > 100 µM | TGI (LOX IMVI melanoma): > 100 µM | TGI (M14 melanoma): > 100 µM | TGI (M19-MEL melanoma): > 100 µM | TGI (MALME-3M melanoma): > 100 µM | TGI (MOLT-4 leukemia): > 100 µM | TGI (NCI-H226 lung): > 100 µM | TGI (NCI-H23 lung): > 100 µM | TGI (NCI-H460 lung): > 100 µM | TGI (NCI-H522 lung): > 100 µM | TGI (OVCAR-3 ovarian): > 100 µM | TGI (OVCAR-4 ovarian): > 100 µM | TGI (OVCAR-8 ovarian): > 100 µM | TGI (RPMI-8226 leukemia): > 100 µM | TGI (RXF 393 renal): > 100 µM | TGI (RXF-631 renal): > 100 µM | TGI (SF-268 CNS): > 100 µM | TGI (SF-295 CNS): > 100 µM | TGI (SF-539 CNS): > 100 µM | TGI (SK-MEL-2 melanoma): > 100 µM | TGI (SK-MEL-28 melanoma): > 100 µM | TGI (SK-MEL-5 melanoma): > 100 µM | TGI (SK-OV-3 ovarian): > 100 µM | TGI (SN12C renal): > 100 µM | TGI (SNB-19 CNS): > 100 µM | TGI (SNB-75 CNS): > 100 µM | TGI (SNB-78 CNS): > 100 µM | TGI (SW-620 colon): > 100 µM | TGI (TK-10 renal): > 100 µM | TGI (U251 CNS): > 100 µM | TGI (UACC-257 melanoma): > 100 µM | TGI (UACC-62 melanoma): > 100 µM | TGI (UO-31 renal): > 100 µM | TGI (XF 498 CNS): > 100 µM

CCCCCCCCCCCCCCC(O)C1CCC(C(O)CCC(O)CCCCCC(O)CC2=CC(C)OC2=O)O1 (stereo not drawn)
TGI (786-0 renal): 8.87 µM | TGI (A498 renal): 20.5 µM | TGI (A549 NSCLC): 13.2 µM | TGI (CAKI-1 renal): 20.8 µM | TGI (CCRF-CEM leukemia): 5.12 µM | TGI (COLO 205 colon): 8.41 µM | TGI (DLD-1 colon): 11.9 µM | TGI (DMS 114 small cell lung): 4.57 µM | TGI (DMS 273 small cell lung): 4.75 µM | TGI (EKVX NSCLC): 16.2 µM | TGI (HCC-2998 colon): 4.94 µM | TGI (HCT-116 colon): 11.1 µM | TGI (HCT-15 colon): 5.25 µM | TGI (HL-60(TB) leukemia): 1.56 µM | TGI (HOP-62 NSCLC): 7.77 µM | TGI (HOP-92 NSCLC): 11.7 µM | TGI (HT29 colon): 8.68 µM | TGI (IGROV1 ovarian): 18.6 µM | TGI (K-562 leukemia): 3.68 µM | TGI (KM20L2 colon): 18.3 µM | TGI (LOX IMVI melanoma): 4.59 µM | TGI (LXFL 529 NSCLC): 13 µM | TGI (M14 melanoma): 22.8 µM | TGI (M19-MEL melanoma): 11.2 µM | TGI (MALME-3M melanoma): 13.6 µM | TGI (MOLT-4 leukemia): 3.14 µM | TGI (NCI-H226 lung): 7.27 µM | TGI (NCI-H23 lung): 12.1 µM | TGI (NCI-H522 lung): 7.4 µM | TGI (OVCAR-3 ovarian): 4.76 µM | TGI (OVCAR-4 ovarian): 8.89 µM | TGI (OVCAR-5 ovarian): 20.3 µM | TGI (OVCAR-8 ovarian): 14.8 µM | TGI (RPMI-8226 leukemia): 2.75 µM | TGI (RXF-631 renal): 16.4 µM | TGI (SF-268 CNS): 12.2 µM | TGI (SF-295 CNS): 10.3 µM | TGI (SF-539 CNS): 17.8 µM | TGI (SK-MEL-2 melanoma): 9.03 µM | TGI (SK-MEL-28 melanoma): 10.1 µM | TGI (SK-MEL-5 melanoma): 2.3 µM | TGI (SK-OV-3 ovarian): 15 µM | TGI (SN12C renal): 9.24 µM | TGI (SNB-19 CNS): 11.1 µM | TGI (SNB-75 CNS): 8.88 µM | TGI (SNB-78 CNS): 8.31 µM | TGI (SW-620 colon): 13.9 µM | TGI (TK-10 renal): 17.9 µM | TGI (U251 CNS): 20.9 µM | TGI (UACC-257 melanoma): 2.94 µM | TGI (UACC-62 melanoma): 13.3 µM | TGI (UO-31 renal): 6.78 µM | TGI (XF 498 CNS): 4.88 µM
